# Results as given in the Kinase Knowledgebase extract (Sharma et al. 2016).
# Molecular target: EGFR (UniProt P00533)
# Sequence (P00533 whole entry, looked up): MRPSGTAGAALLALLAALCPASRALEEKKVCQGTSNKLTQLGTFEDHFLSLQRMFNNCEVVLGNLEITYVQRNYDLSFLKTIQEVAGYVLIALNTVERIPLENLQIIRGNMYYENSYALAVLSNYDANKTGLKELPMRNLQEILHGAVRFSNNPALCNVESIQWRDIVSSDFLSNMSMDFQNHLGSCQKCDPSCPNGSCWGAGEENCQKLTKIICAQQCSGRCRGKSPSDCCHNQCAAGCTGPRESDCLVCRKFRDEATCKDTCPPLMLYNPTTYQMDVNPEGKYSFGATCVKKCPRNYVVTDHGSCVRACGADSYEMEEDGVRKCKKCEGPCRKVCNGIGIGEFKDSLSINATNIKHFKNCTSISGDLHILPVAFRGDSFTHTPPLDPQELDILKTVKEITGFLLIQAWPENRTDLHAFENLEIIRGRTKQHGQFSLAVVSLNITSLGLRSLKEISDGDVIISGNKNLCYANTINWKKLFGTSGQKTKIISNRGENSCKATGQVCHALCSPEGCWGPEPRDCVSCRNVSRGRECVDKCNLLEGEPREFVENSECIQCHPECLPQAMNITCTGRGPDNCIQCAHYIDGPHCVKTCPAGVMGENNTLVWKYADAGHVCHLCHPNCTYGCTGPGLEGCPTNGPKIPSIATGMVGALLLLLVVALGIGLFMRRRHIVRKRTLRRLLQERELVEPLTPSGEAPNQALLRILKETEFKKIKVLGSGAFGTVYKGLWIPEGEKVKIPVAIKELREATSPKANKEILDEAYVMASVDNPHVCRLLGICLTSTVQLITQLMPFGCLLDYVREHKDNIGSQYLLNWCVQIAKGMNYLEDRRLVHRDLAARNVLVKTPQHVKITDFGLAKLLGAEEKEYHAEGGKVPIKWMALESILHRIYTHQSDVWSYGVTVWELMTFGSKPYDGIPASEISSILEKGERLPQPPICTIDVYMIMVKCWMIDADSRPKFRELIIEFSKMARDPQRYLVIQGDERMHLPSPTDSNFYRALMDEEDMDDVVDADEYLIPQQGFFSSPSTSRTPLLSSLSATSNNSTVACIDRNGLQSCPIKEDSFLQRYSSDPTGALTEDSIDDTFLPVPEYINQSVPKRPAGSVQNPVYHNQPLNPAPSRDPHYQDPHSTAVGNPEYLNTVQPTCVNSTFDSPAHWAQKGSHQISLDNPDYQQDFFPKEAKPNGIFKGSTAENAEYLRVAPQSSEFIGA
compound,measurement,value
CS(=O)(=O)CCNc1nc(C#Cc2cncnc2Nc2ccc(OCc3cccc(F)c3)c(Cl)c2)ncc1C#N,IC50,≤ 10 µM
